Reference: patent US20020164348A1 (priority 2000, published 2002)

Assays:
poliovirus polymerase = poliovirus polymerase (Poliovirus type 1, UniProt P03300)
rhinovirus polymerase = rhinovirus polymerase (Human rhinovirus 14, UniProt P03303); format: biochemical
[1] = molecular target: poliovirus RNA-dependent RNA polymerase 3Dpol WT (Poliovirus type 1 (Mahoney), UniProt P03300 P03300:1749-2209); assay: filter; settings: tags: none stated, expressed in E. coli BL21(DE3) pLysS, N-terminal Met removed; label: 32P (alpha-32P CTP, T7 transcript); 20 bp blunt self-complementary duplex
[2] = molecular target: T1, pJG-poliovirus 3D prey fusion (pJGPolio3D) (poliovirus Mahoney type 1, UniProt P03300 1749-2209); assay: yeast two-hybrid, colour on X-gal plates (- white); bait in row, prey in column
T1 sequence: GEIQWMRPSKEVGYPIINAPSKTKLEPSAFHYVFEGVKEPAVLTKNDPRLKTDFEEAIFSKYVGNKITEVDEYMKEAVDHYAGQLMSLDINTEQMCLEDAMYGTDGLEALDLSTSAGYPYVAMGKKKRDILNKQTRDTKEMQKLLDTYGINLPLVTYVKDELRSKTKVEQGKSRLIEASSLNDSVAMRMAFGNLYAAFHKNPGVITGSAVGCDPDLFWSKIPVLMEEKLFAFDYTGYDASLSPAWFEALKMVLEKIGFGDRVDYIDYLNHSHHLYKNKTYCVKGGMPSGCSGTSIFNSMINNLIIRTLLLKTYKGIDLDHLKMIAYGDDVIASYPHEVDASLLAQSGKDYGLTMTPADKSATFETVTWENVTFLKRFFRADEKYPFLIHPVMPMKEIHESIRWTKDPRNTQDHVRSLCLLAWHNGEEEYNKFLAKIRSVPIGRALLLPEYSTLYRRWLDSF

Sequence of rhinovirus polymerase (P03303 1720-2179 limits assumed): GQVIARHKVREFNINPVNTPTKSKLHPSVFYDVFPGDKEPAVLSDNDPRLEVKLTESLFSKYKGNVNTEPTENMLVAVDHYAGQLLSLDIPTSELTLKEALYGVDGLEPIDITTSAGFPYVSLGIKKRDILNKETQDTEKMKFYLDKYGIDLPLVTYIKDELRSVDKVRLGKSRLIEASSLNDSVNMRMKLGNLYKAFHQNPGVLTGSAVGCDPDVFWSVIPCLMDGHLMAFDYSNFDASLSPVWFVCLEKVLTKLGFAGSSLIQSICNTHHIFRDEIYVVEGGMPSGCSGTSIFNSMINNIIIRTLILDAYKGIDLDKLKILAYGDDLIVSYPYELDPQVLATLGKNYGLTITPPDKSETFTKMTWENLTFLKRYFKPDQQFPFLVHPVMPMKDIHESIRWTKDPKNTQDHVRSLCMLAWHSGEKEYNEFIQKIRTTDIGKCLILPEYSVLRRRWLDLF

[Cl-].[Cl-].[Zn+2] [ZnCl2]
effect on decrease in specific activity with decreasing polymerase concentration (poliovirus polymerase): nearly eliminates the decrease in specific activity

KPHKCTFEGCRKSYSRSTNLRRHLNSH (SEQ ID NO:5) [Peptide 1]
activity of the rhinovirus polymerase (rhinovirus polymerase): inhibits

B1: 0.20 RNA (dsRNA)
RNA 1: GGCAGCUGCAUGCAGCUGCC
RNA 2: GGCAGCUGCAUGCAGCUGCC
binding result [1]: binds

B2: Lex202 vector control (bait vector without a polymerase) (other)
chain: MKALTARQQEVFDLIRDHISQTGMPPTRAEIAQRLGFRSPNAAEEHLKALARKGVIEIVSGASRGIRLLQEEEEGLPLVGRVAAGEPLLAQQHIEGHYQVDPSLFKPNADFLLRVSGMSMKDIGIMDGDLLAVHKTQDVRNGQVVVARIDDEVTVKRLKKQGNKVELLPENSEFKPIVVDLRQQSFTIEGLAVGVIRNGDWL
binding result [2]: no binding
